Columns and labels:
[1] = mouse, in vivo
Experimental: (§1) The test compounds were prepared in a vehicle consisting of 4% Ethanol, 5% Tween-20, 5% polyethyleneglycol 400 in 0.15M NaCl. A single dbse of 10 mg/kg p.o. or 3 mg/kg i.v. was administered to groups of female CD1 mice (3 mice for each compound per time point). At 0 min, 4 min, 15 min, 1 h, 4 h, and 24 h groups were sacrificed and the blood and the brain were collected from each mouse for further analysis.
(§2) The brain samples were snap frozen in liquid nitrogen and stored at −20° C. A minimum of 0.2 mL of whole blood from each animal was collected in tubes containing ethylene diamine tetra-acetic acid (EDTA) as anticoagulant, thoroughly mixed, and stored at −20° C.
(§3) Analysis was performed by ASI Limited, (St George's Hospital Medical School, London). The concentration of the test compound in the blood and brain samples supplied was determined by HPLC with MS detection. Control, test compound free, blood samples were obtained from Harlan Sera-Lab Limited, (Loughborough, England). Time zero brain samples were supplied as control, test compound free, brain samples.
(§4) One hemisphere of each brain was homogenized with 5 mL water.
(§5) The control or test sample of mouse brain or blood (0.05 mL), internal standard solution (0.1 mL), 5% Zinc sulphate solution (0.5 mL), and acetone (0.5 mL) were pipetted into a 2 mL polypropylene tube (Sarstedt Limited, Beaumont Leys, Leicester, UK) and the contents were then mixed for a minimum of 5 minutes (IKA-Vibrax-VXR mixer, Merck (BDH) Limited, Poole Dorset, UK). The tubes were then centrifuged in a microfuge for a minimum of 2 minutes. The solvent layer was decanted into a 4.5 mL polypropylene tube containing sodium hydroxide (0.1M, 0.1 mL) and methyl-tert-butyl ether (MTBE, 2 mL). The tube was then mixed for a minimum of 5 minutes (IKA-Vibrax-VXR mixer) and then centrifuged at 3500 rpm for 5 minutes. The solvent layer was transferred to a 4.5 mL conical polypropylene tube, placed in a SpeedVac® and evaporated to dryness.
(§6) The dried extracts were reconstituted with 0.15 mL 80% methanol and mixed for a minimum of 5 minutes (IKA-Vibrax-VXR mixer) and centrifuged at 3500 rpm for 5 minutes. The extract was transferred to auto sampler tubes (NLG Analytical, Adelphi Mill, Bollington, Cheshire, UK) and placed into the auto-sampler tray which was set at ambient temperature. The auto-sampler was programmed to inject a 0.03 mL aliquot of each extract onto the analytical column.
(§7) The AUC for each compound in blood or in brain tissue was calculated using Kinetica 4.4 (InnaPhase Corporation), using a non-compartmental model and the trapezoidal method for AUC calculation.
(§8) The partition coefficient (Ri) for each compound after p.o. and i.v. administration was calculated as shown below:
(§9) The partition coefficient (R) for each compound after i.v. administration was calculated as shown below:

NCI 60 cell line panel = NCI 60 cell line panel monolayer proliferation assay (Protocol 2, SRB) with COMPARE analysis; type: cell-based, human; settings: with the exception of one cell line
Experimental: The COMPARE analysis uses a Pearson analysis to compare the activity of two compounds on the NCI 60-cell line panel and produces a correlation coefficient which indicates how similar the two compounds spectra of activity are and this may indicate how related their mechanism's of action are.
The human tumor cell lines of the National Cancer Institute (NCI) cancer screening panel were grown in RPMI 1640 medium containing 5% fetal bovine serum and 2 mM L-glutamine (Boyd and Paull, 1995). Cells were inoculated into 96 well microtiter plates in 0.1 mL at plating densities ranging from 5,000 to 40,000 cells/well depending on the doubling time of individual cell lines. […]
Following drug addition, the plates were incubated for an additional 48 h at 37° C., 5% CO2, 95% air, and 100% relative humidity. […] Bound stain was subsequently solubilized with 10 mM trizma base, and the absorbance was read on an automated plate reader at a wavelength of 515 nm. […] Using the seven absorbance measurements [time zero, (Tz), control growth, (C), and test growth in the presence of drug at the five concentration levels (Ti)], the percentage growth was calculated at each of the drug concentrations levels. Percentage growth inhibition was calculated as:
Three dose response parameters were calculated for each experimental agent. […] The drug concentration resulting in total growth inhibition (TGI) was calculated from Ti=Tz. […]

[2] = Pharmacokinetic analysis Protocol 1 (blood and brain); settings: female, CD1, mouse, 3 mg/kg
Experimental: as §1, §2, §3, §4, §5, §6, §7, §8, §9

Row | Structure (SMILES) | AUCBLOOD i.v. ([1]; iv, 3 mg/kg) | AUCBRAIN i.v. ([1]; iv, 3 mg/kg) | AUCBLOOD p.o. ([1]; po, 10 mg/kg) | AUCBRAIN p.o. ([1]; po, 10 mg/kg) | efficacy against high MDR-expressing cell lines when compared to rapamycin (NCI 60 cell line panel) | Kp ([2]; brain / whole blood, intravenous) | AUC ([2]; whole blood, iv)
1 | COC1CC2CCC(C)C(O)(O2)C(=O)C(=O)N2CCCCC2C(=O)OC(C(C)CC2CCC(O)CC2)CC(=O)C(C)C=C(C)C(O)C(OC)C(=O)C(C)CC(C)C=CC=CC=C1C (stereo not shown) [39-desmethoxyrapamycin] | 15444.3 | 24911.4 | 16856.5 | 1697.69 | equivalent or improved efficacy | – | –
2 | CO[C@H]1C[C@@H]2CC[C@@H](C)[C@@](O)(O2)C(=O)C(=O)N2CCCC[C@H]2C(=O)O[C@H]([C@H](C)C[C@@H]2CC[C@@H](O)[C@H](OC)C2)CC(=O)[C@H](C)/C=C(\C)[C@@H](O)[C@@H](OC)C(=O)[C@H](C)C[C@H](C)/C=C/C=C/C=C/1C [Rapamycin] | – | – | – | – | – | 1.13 | 10800 ng·h/mL

Reference: US20100061994A1, “MEDICAL USES OF 39-DESMETHOXYRAPAMYCIN AND ANALOGUES THEREOF” (priority 2005, published 2010)
